This passage reports agonism, pIC50 and GIP(1-42)-stimulated cAMP accumulation in HEK 293T cells, pEC50 results from publication PMC8298097 (eLife, 2021).

One assay deals with GIPR. To be noted: maximum response compared with human GIP; ref Sparre-Ulrich et al., 2016; Bailey, 2020; cited from earlier work. The source says: Species differences in class B1 receptor responsiveness are diversified and receptor specific, which is tolerable for some receptors such as GLP-1R and GCGR, but leads to concerns for others like GIPR and parathyroid hormone receptor-2 (PTH2R) ([Sparre-Ulrich et al., 2016]; [Hoare et al., 1999]). […] Such a divergence is not caused by changes in peptide potency, but r ...

In another assay the test system is GCGR. Particulars: cognate receptor, ref Yuliantie et al., 2020, Darbalaei et al.; cited from earlier work.
For assay [1], the target named is T1, human GIPR Y68A, HA-Flag-3GSA-GIPR(22-466) (human) (UniProt P48546).
T1 sequence: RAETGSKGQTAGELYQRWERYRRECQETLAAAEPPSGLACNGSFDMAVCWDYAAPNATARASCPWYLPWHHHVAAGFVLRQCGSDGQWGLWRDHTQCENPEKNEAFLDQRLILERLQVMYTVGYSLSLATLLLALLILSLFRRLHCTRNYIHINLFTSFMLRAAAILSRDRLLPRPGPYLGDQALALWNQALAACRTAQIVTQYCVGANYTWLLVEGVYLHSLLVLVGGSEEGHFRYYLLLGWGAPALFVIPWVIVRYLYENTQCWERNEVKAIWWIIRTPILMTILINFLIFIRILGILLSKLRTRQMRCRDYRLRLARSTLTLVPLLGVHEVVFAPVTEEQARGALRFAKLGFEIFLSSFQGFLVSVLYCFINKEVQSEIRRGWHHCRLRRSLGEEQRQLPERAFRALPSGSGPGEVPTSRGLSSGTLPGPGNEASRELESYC

In the case of “Human (Pro3)GIP: full agonist with identical maximum response as human GIP (YAPGTFISDYSIAMDKIHQQDFVNWLLAQKGKKNDWKHNITQ; Gastric inhibitory polypeptide; UniProt P09681 52-93, looked up, variant E3P)”, the agonism result with GIPR is “full agonist with identical maximum response as human GIP”.

One may read the pIC50 as the negative decadic logarithm of the IC50, by convention in mol/L. With glucagon, the pIC50 in the assay with GCGR is 7.31.

The substance “glucose-dependent insulinotropic polypeptide GIP(1-42) (from UniProt P09681 52-93)” had a GIP(1-42)-stimulated cAMP accumulation in HEK 293T cells, pEC50 in assay [1] of 6.79.
